Laboratory results: the NIST ThermoML archive (doi:10.1021/je400722h)
± gives the expanded uncertainty stated by the source.

Assay: molar heat capacity at constant pressure; xn = mol fraction of the nth substance listed
Conditions: 101 kPa, Liquid, Small sample (50 mg) DSC

Cc1ccccc1Cl [2-chlorotoluene] + C1CCOCC1
molar heat capacity at constant pressure [J/K/mol]
Conditions	298.15 K	303.15 K	308.15 K
x1 = 0.0897	152.82 ± 2.4	154.4 ± 2.4	156.2 ± 2.4
x1 = 0.1165	153.77 ± 2.4	155.35 ± 2.4	157.14 ± 2.4
x1 = 0.1429	154.71 ± 2.4	156.28 ± 2.4	158.07 ± 2.5
x1 = 0.1929	156.46 ± 2.4	158.04 ± 2.5	159.8 ± 2.5
x1 = 0.2376	158.01 ± 2.5	159.59 ± 2.5	161.34 ± 2.5
x1 = 0.2892	159.77 ± 2.5	161.35 ± 2.5	163.09 ± 2.5
x1 = 0.3218	160.85 ± 2.5	162.44 ± 2.5	164.17 ± 2.5
x1 = 0.3519	161.84 ± 2.5	163.43 ± 2.5	165.15 ± 2.6
x1 = 0.4019	163.44 ± 2.5	165.03 ± 2.6	166.75 ± 2.6
x1 = 0.4427	164.71 ± 2.5	166.31 ± 2.6	168.01 ± 2.6
x1 = 0.4817	165.88 ± 2.6	167.49 ± 2.6	169.19 ± 2.6
x1 = 0.5216	167.05 ± 2.6	168.66 ± 2.6	170.35 ± 2.6
x1 = 0.5549	168 ± 2.6	169.62 ± 2.6	171.3 ± 2.6
x1 = 0.5936	169.07 ± 2.6	170.69 ± 2.6	172.36 ± 2.7
x1 = 0.6215	169.81 ± 2.6	171.44 ± 2.7	173.11 ± 2.7
x1 = 0.6518	170.6 ± 2.6	172.23 ± 2.7	173.9 ± 2.7
x1 = 0.6902	171.57 ± 2.7	173.21 ± 2.7	174.87 ± 2.7
x1 = 0.7205	172.31 ± 2.7	173.96 ± 2.7	175.62 ± 2.7
x1 = 0.7515	173.04 ± 2.7	174.7 ± 2.7	176.36 ± 2.7
x1 = 0.7931	173.99 ± 2.7	175.66 ± 2.7	177.32 ± 2.8
x1 = 0.8156	174.49 ± 2.7	176.17 ± 2.7	177.83 ± 2.8
x1 = 0.8472	175.18 ± 2.7	176.87 ± 2.7	178.52 ± 2.8
x1 = 0.8831	175.93 ± 2.7	177.63 ± 2.8	179.3 ± 2.8
x1 = 0.9146	176.56 ± 2.7	178.29 ± 2.8	179.96 ± 2.8

Cc1ccccc1Cl [2-chlorotoluene] + C1COCCO1
molar heat capacity at constant pressure [J/K/mol]
Conditions	298.15 K	303.15 K	308.15 K
x1 = 0.0903	155.43 ± 2.4	156.69 ± 2.4	158.03 ± 2.5
x1 = 0.1278	156.54 ± 2.4	157.84 ± 2.5	159.2 ± 2.5
x1 = 0.1654	157.65 ± 2.4	158.98 ± 2.5	160.36 ± 2.5
x1 = 0.2006	158.69 ± 2.5	160.04 ± 2.5	161.44 ± 2.5
x1 = 0.2343	159.68 ± 2.5	161.05 ± 2.5	162.46 ± 2.5
x1 = 0.2765	160.9 ± 2.5	162.3 ± 2.5	163.73 ± 2.5
x1 = 0.3004	161.59 ± 2.5	163 ± 2.5	164.44 ± 2.5
x1 = 0.3421	162.78 ± 2.5	164.21 ± 2.5	165.66 ± 2.6
x1 = 0.3876	164.06 ± 2.5	165.52 ± 2.6	166.99 ± 2.6
x1 = 0.4002	164.41 ± 2.5	165.87 ± 2.6	167.35 ± 2.6
x1 = 0.4327	165.31 ± 2.6	166.79 ± 2.6	168.28 ± 2.6
x1 = 0.4726	166.39 ± 2.6	167.9 ± 2.6	169.41 ± 2.6
x1 = 0.5117	167.43 ± 2.6	168.97 ± 2.6	170.5 ± 2.6
x1 = 0.5401	168.17 ± 2.6	169.73 ± 2.6	171.28 ± 2.6
x1 = 0.5915	169.49 ± 2.6	171.09 ± 2.6	172.67 ± 2.7
x1 = 0.6305	170.45 ± 2.6	172.09 ± 2.7	173.7 ± 2.7
x1 = 0.6721	171.46 ± 2.7	173.13 ± 2.7	174.77 ± 2.7
x1 = 0.7198	172.57 ± 2.7	174.28 ± 2.7	175.95 ± 2.7
x1 = 0.7401	173.03 ± 2.7	174.76 ± 2.7	176.44 ± 2.7
x1 = 0.7623	173.53 ± 2.7	175.27 ± 2.7	176.97 ± 2.7
x1 = 0.8004	174.36 ± 2.7	176.13 ± 2.7	177.84 ± 2.8
x1 = 0.8432	175.26 ± 2.7	177.05 ± 2.7	178.78 ± 2.8
x1 = 0.8856	176.11 ± 2.7	177.92 ± 2.8	179.66 ± 2.8
x1 = 0.9165	176.7 ± 2.7	178.52 ± 2.8	180.26 ± 2.8

Cc1ccccc1Cl [2-chlorotoluene] + C1COCO1
molar heat capacity at constant pressure [J/K/mol]
Conditions	298.15 K	303.15 K	308.15 K
x1 = 0.0865	127.97 ± 2	129.15 ± 2	130.3 ± 2
x1 = 0.1145	129.85 ± 2	131.07 ± 2	132.27 ± 2
x1 = 0.1386	131.45 ± 2	132.71 ± 2.1	133.94 ± 2.1
x1 = 0.1829	134.37 ± 2.1	135.68 ± 2.1	136.97 ± 2.1
x1 = 0.2145	136.42 ± 2.1	137.77 ± 2.1	139.09 ± 2.1
x1 = 0.2573	139.17 ± 2.2	140.56 ± 2.2	141.91 ± 2.2
x1 = 0.2965	141.65 ± 2.2	143.06 ± 2.2	144.45 ± 2.2
x1 = 0.3217	143.22 ± 2.2	144.65 ± 2.2	146.05 ± 2.3
x1 = 0.3506	144.99 ± 2.2	146.45 ± 2.3	147.87 ± 2.3
x1 = 0.3902	147.38 ± 2.3	148.87 ± 2.3	150.31 ± 2.3
x1 = 0.4216	149.24 ± 2.3	150.75 ± 2.3	152.22 ± 2.4
x1 = 0.4654	151.78 ± 2.4	153.32 ± 2.4	154.82 ± 2.4
x1 = 0.5007	153.78 ± 2.4	155.35 ± 2.4	156.88 ± 2.4
x1 = 0.5418	156.06 ± 2.4	157.66 ± 2.4	159.23 ± 2.5
x1 = 0.5905	158.68 ± 2.5	160.33 ± 2.5	161.94 ± 2.5
x1 = 0.6218	160.32 ± 2.5	162.01 ± 2.5	163.64 ± 2.5
x1 = 0.663	162.44 ± 2.5	164.17 ± 2.5	165.83 ± 2.6
x1 = 0.6902	163.81 ± 2.5	165.56 ± 2.6	167.25 ± 2.6
x1 = 0.7118	164.88 ± 2.5	166.65 ± 2.6	168.36 ± 2.6
x1 = 0.7534	166.91 ± 2.6	168.72 ± 2.6	170.46 ± 2.6
x1 = 0.7927	168.78 ± 2.6	170.62 ± 2.6	172.38 ± 2.7
x1 = 0.8426	171.11 ± 2.6	172.98 ± 2.7	174.76 ± 2.7
x1 = 0.8914	173.35 ± 2.7	175.22 ± 2.7	177 ± 2.7
x1 = 0.9206	174.66 ± 2.7	176.53 ± 2.7	178.31 ± 2.8
